Measured values published in patent US10206901B2, “Method and composition for acute treatment of seizures” (JC Pharma, Inc., priority 2016, dated 2019).

What was measured:
rat model of epilepsy = settings: intraperitoneal injection, cited from earlier work
convulsive seizures = assay: Acute intranasal treatment of convulsive seizures in pediatric human subjects; type: in vivo; settings: human subjects weighing over 60 lbs
Protocol: Three male human pediatric subjects, each under the age of 16, undergoing convulsive seizures, were administered from two to four 0.1 ml doses (each dose 5 mg delta-9-tetrahydrocannabinol with 8% by volume linalool) of the product disclosed herein. Administration was achieved via a nasal spray administered within one or more of the subject's nostrils using the delivery device disclosed herein by a caregiver during the occurrence of the convulsive seizure. In subject one, administered 3 doses, a visible state of cessation of the convulsions of the seizure was achieved by 21 seconds from first dose administration. In subject two, administered 4 doses, a visible state of cessation of the convulsions of the seizure was achieved by 36 seconds from first dose administration. In subject three, administered 2 doses, a visible state of cessation of the convulsions of the seizure was achieved by 27 seconds from first dose administration.
Thus, acute treatment of the convulsive seizure using an average dose of 3×0.1 ml of the 5 mg delta-9-tetrahydrocannabinol with 8% by volume linalool achieved cessation of the convulsion symptom of the convulsive seizure within a mean time of 28 seconds from first dose administration.

## CCCCCc1cc(O)c2c(c1)OC(C)(C)[C@@H]1CCC(C)=C[C@@H]21 [THC, delta-9-tetrahydrocannabinol]
Rat model of epilepsy; 30.0 mg/kg
  seizure prevention: can prevent seizures from occurring
Rat model of epilepsy
  ED50 anticonvulsant effect (seizure prevention): 15.0 mg/kg
  dose at which anticonvulsant effect starts: 5.0 mg/kg
Convulsive seizures
  lowest administered THC dose per body weight at which seizures in progress were stopped: around 0.37 mg/kg
  lowest total administered THC dose at which seizures in progress were treated and stopped: 10.0 mg
